Experimental data: the NIST ThermoML archive (doi:10.1021/je049721u)
Numbers after ± are expanded uncertainties.

Test: mn = molality of the nth substance listed, in mol/kg
Conditions: 101.3 kPa, Liquid; for speed of sound: Pulse-echo method

[O-][Cl+3]([O-])([O-])[O-].[O-][Cl+3]([O-])([O-])[O-].[Zn+2] [zinc perchlorate] + CN(C)C=O
Conditions	mass density, 283.15 K [kg/m3]	mass density, 293.15 K [kg/m3]	mass density, 298.15 K [kg/m3]	mass density, 303.15 K [kg/m3]	mass density, 313.15 K [kg/m3]	mass density, 323.15 K [kg/m3]	mass density, 333.15 K [kg/m3]	speed of sound, 298.15 K [m/s]
m1 = 0.03554	965.795 ± 0.58	956.309 ± 0.59	951.555 ± 0.59	946.8 ± 0.59	937.255 ± 0.6	927.66 ± 0.6	918.015 ± 0.61	1459.9 ± 1.4
m1 = 0.04966	968.825 ± 0.58	959.347 ± 0.58	954.6 ± 0.59	949.85 ± 0.59	940.315 ± 0.59	930.737 ± 0.6	921.108 ± 0.61	–
m1 = 0.05952	970.955 ± 0.58	961.484 ± 0.58	956.74 ± 0.59	951.99 ± 0.59	942.46 ± 0.59	932.889 ± 0.6	923.268 ± 0.61	1461.7 ± 1.4
m1 = 0.06946	973.095 ± 0.58	963.626 ± 0.58	958.885 ± 0.58	954.139 ± 0.59	944.619 ± 0.59	935.058 ± 0.6	925.449 ± 0.6	1462.5 ± 1.5
m1 = 0.1039	980.554 ± 0.58	971.105 ± 0.58	966.376 ± 0.58	961.642 ± 0.58	952.143 ± 0.59	942.607 ± 0.59	933.036 ± 0.6	1465 ± 1.5
m1 = 0.1369	987.781 ± 0.58	978.348 ± 0.58	973.626 ± 0.58	968.9 ± 0.58	959.426 ± 0.59	949.918 ± 0.59	940.371 ± 0.6	1467.5 ± 1.5
m1 = 0.17	995.118 ± 0.58	985.7 ± 0.58	980.987 ± 0.58	976.267 ± 0.58	966.813 ± 0.58	957.333 ± 0.59	947.816 ± 0.59	1469.6 ± 1.5
m1 = 0.2038	1002.65 ± 0.58	993.242 ± 0.58	988.537 ± 0.58	983.828 ± 0.58	974.394 ± 0.58	964.934 ± 0.59	955.438 ± 0.59	1472.1 ± 1.5
m1 = 0.2374	1010.26 ± 0.59	1000.87 ± 0.58	996.17 ± 0.58	991.474 ± 0.58	982.063 ± 0.58	972.635 ± 0.58	963.178 ± 0.59	1474.7 ± 1.5
m1 = 0.2701	1017.77 ± 0.6	1008.39 ± 0.59	1003.7 ± 0.58	999.008 ± 0.58	989.616 ± 0.58	980.208 ± 0.58	970.777 ± 0.59	1477.2 ± 1.5
m1 = 0.3002	1024.72 ± 0.61	1015.35 ± 0.6	1010.66 ± 0.59	1005.98 ± 0.59	996.605 ± 0.58	987.212 ± 0.58	977.794 ± 0.59	1479.7 ± 1.5
m1 = 0.3314	1032.04 ± 0.61	1022.68 ± 0.6	1018.01 ± 0.6	1013.33 ± 0.59	1003.97 ± 0.59	994.605 ± 0.58	985.215 ± 0.58	1482.1 ± 1.5

[Cu+2].[O-][Cl+3]([O-])([O-])[O-].[O-][Cl+3]([O-])([O-])[O-] [copper perchlorate] + CN(C)C=O
Conditions	mass density, 283.15 K [kg/m3]	mass density, 293.15 K [kg/m3]	mass density, 298.15 K [kg/m3]	mass density, 303.15 K [kg/m3]	mass density, 313.15 K [kg/m3]	mass density, 323.15 K [kg/m3]	mass density, 333.15 K [kg/m3]	speed of sound, 298.15 K [m/s]
m1 = 0.0362	965.762 ± 0.58	956.275 ± 0.58	951.52 ± 0.59	946.762 ± 0.59	937.212 ± 0.59	927.62 ± 0.6	917.988 ± 0.61	1460 ± 1.4
m1 = 0.04897	968.496 ± 0.58	959.009 ± 0.58	954.258 ± 0.59	949.505 ± 0.59	939.972 ± 0.59	930.338 ± 0.6	920.756 ± 0.61	–
m1 = 0.0604	970.938 ± 0.58	961.462 ± 0.58	956.715 ± 0.58	951.971 ± 0.59	942.44 ± 0.59	932.866 ± 0.6	923.242 ± 0.6	1461.7 ± 1.4
m1 = 0.07815	974.714 ± 0.58	965.248 ± 0.58	960.507 ± 0.58	955.758 ± 0.59	946.236 ± 0.59	936.666 ± 0.6	927.06 ± 0.6	1463.2 ± 1.5
m1 = 0.106	980.752 ± 0.58	971.295 ± 0.58	966.549 ± 0.58	961.812 ± 0.58	952.315 ± 0.59	942.78 ± 0.59	933.198 ± 0.6	1465.3 ± 1.5
m1 = 0.139	987.892 ± 0.58	978.445 ± 0.58	973.718 ± 0.58	968.984 ± 0.58	959.5 ± 0.59	949.979 ± 0.59	940.416 ± 0.6	1467.8 ± 1.5
m1 = 0.1737	995.495 ± 0.58	986.058 ± 0.58	981.338 ± 0.58	976.613 ± 0.58	967.148 ± 0.58	957.653 ± 0.59	948.12 ± 0.59	1470.3 ± 1.5
m1 = 0.2084	1003.16 ± 0.58	993.739 ± 0.58	989.024 ± 0.58	984.309 ± 0.58	974.859 ± 0.58	965.385 ± 0.59	955.869 ± 0.59	1473.2 ± 1.5
m1 = 0.2431	1010.94 ± 0.59	1001.53 ± 0.58	996.825 ± 0.58	992.116 ± 0.58	982.686 ± 0.58	973.233 ± 0.58	963.75 ± 0.59	1475.7 ± 1.5
m1 = 0.2746	1018.01 ± 0.6	1008.7 ± 0.59	1003.95 ± 0.58	999.2 ± 0.58	989.83 ± 0.58	980.454 ± 0.58	970.858 ± 0.59	1478.3 ± 1.5
m1 = 0.3065	1025.38 ± 0.61	1015.99 ± 0.6	1011.3 ± 0.59	1006.6 ± 0.59	997.202 ± 0.58	987.786 ± 0.58	978.345 ± 0.58	1480.8 ± 1.5
m1 = 0.3377	1032.62 ± 0.61	1023.24 ± 0.6	1018.54 ± 0.6	1013.85 ± 0.59	1004.46 ± 0.58	995.056 ± 0.58	985.638 ± 0.58	1483.8 ± 1.5

[Mn+2].[O-][Cl+3]([O-])([O-])[O-].[O-][Cl+3]([O-])([O-])[O-] [manganese (II) perchlorate] + CN(C)C=O
Conditions	mass density, 283.15 K [kg/m3]	mass density, 293.15 K [kg/m3]	mass density, 298.15 K [kg/m3]	mass density, 303.15 K [kg/m3]	mass density, 313.15 K [kg/m3]	mass density, 323.15 K [kg/m3]	mass density, 333.15 K [kg/m3]	speed of sound, 298.15 K [m/s]
m1 = 0.04109	966.326 ± 0.58	956.852 ± 0.58	952.107 ± 0.58	947.355 ± 0.59	937.821 ± 0.59	928.242 ± 0.6	918.616 ± 0.6	1460.8 ± 1.4
m1 = 0.05823	969.773 ± 0.57	960.312 ± 0.58	955.574 ± 0.58	950.83 ± 0.58	941.313 ± 0.59	931.759 ± 0.59	922.147 ± 0.6	–
m1 = 0.08396	974.96 ± 0.57	965.52 ± 0.58	960.793 ± 0.58	956.059 ± 0.58	946.568 ± 0.59	937.04 ± 0.59	927.465 ± 0.6	1464.6 ± 1.5
m1 = 0.1024	978.695 ± 0.57	969.265 ± 0.58	964.546 ± 0.58	959.822 ± 0.58	950.346 ± 0.58	940.834 ± 0.59	931.273 ± 0.6	–
m1 = 0.1233	982.926 ± 0.57	973.513 ± 0.57	968.799 ± 0.58	964.082 ± 0.58	954.629 ± 0.58	945.142 ± 0.59	935.612 ± 0.59	1468.2 ± 1.5
m1 = 0.1616	990.785 ± 0.57	981.396 ± 0.57	976.698 ± 0.57	971.997 ± 0.58	962.575 ± 0.58	953.124 ± 0.58	943.633 ± 0.59	1471.4 ± 1.5
m1 = 0.2007	998.895 ± 0.57	989.531 ± 0.57	984.846 ± 0.57	980.162 ± 0.57	970.768 ± 0.58	961.357 ± 0.58	951.918 ± 0.59	1475 ± 1.5
m1 = 0.2395	1007.03 ± 0.58	997.69 ± 0.57	993.019 ± 0.57	988.351 ± 0.57	978.996 ± 0.58	969.623 ± 0.58	960.225 ± 0.58	1478.3 ± 1.5
m1 = 0.2793	1015.47 ± 0.59	1006.16 ± 0.58	1001.5 ± 0.57	996.842 ± 0.57	987.519 ± 0.58	978.179 ± 0.58	968.812 ± 0.58	1481.9 ± 1.5
m1 = 0.3166	1023.51 ± 0.6	1014.22 ± 0.59	1009.58 ± 0.58	1004.94 ± 0.58	995.645 ± 0.57	986.342 ± 0.58	977.019 ± 0.58	1485.6 ± 1.5
m1 = 0.3529	1031.38 ± 0.61	1022.11 ± 0.6	1017.48 ± 0.59	1012.85 ± 0.59	1003.59 ± 0.58	994.313 ± 0.58	985.025 ± 0.58	1488.9 ± 1.5
m1 = 0.3885	1039.21 ± 0.62	1029.96 ± 0.61	1025.35 ± 0.6	1020.73 ± 0.6	1011.5 ± 0.59	1002.27 ± 0.58	993.029 ± 0.58	1492.5 ± 1.5
